Test results: patent US20020172990A1, “Cyclin dependent kinase 5 phosphorylation of disabled 1 protein” (priority 2002, published 2002)

Test system: Dab1 phosphorylation in embryonic neurons
Assay: Reelin stimulation of embryonic neurons, Dab1 immunoprecipitation and Western blot
Format: cell-based, mouse
Method: Stimulation of embryonic neurons with purified Reelin has been described previously (Keshvara et al., J Biol Chem 276:16008-16014, 2001). Briefly, neurons obtained by trituration of embryonic brains were treated either with purified recombinant Reelin or with a control supernatant for 15 minutes at 37° C. After incubation neurons were either snap frozen or lysed immediately. Reelin-treated neuronal pellets were lysed in cell lysis buffer (25 mM Tris-HCl, 1% Nonidet P-40, 150 mM NaCl, 5 mM EDTA, 1 mM sodium orthovanadate, 20 mM sodium fluoride, and 20 μg/ml each of aprotinin and leupeptin). Whole brains were also homogenized in this lysis buffer. Cell lysates as well as brain homogenates were clarified by centrifugation at 10,000× g at 4° C. for 20 min.
Cell or brain lysates were incubated with anti-Cdk5 or anti-Dab1 antibodies at 4° C. for 2 hr. Immune complexes were collected with protein G-agarose beads (Pierce) and washed three times with cell lysis buffer. Immunoprecipitates were boiled in SDS sample buffer, separated by SDS-PAGE, and blotted to nitrocellulose membranes. Nitrocellulose membranes were blocked with 5% non-fat dry milk in TBST (50 mM Tris, pH 7.4, 150 mM NaCl, 1% Tween 20) for 1 hr at room temperature. The following antibodies were used for various immunoblots: anti-PSer491 (1:1000), anti-Cdk5 (1:2000), anti-PY198 (1:100), 4G10 (1:2000) (Upstate Biotechnology, Lake Placid, N.Y.), and anti-Dab1 (CT38, 1:5000). All dilutions were made in blocking solution, and incubations were carried out at room temperature for one hour. The membranes were washed in TBST and incubated with horseradish peroxidase-conjugated secondary antibody (1:10,000) for 1 hr. Detection was carried out using Super Signal West Dura Extended Duration Substrate (Pierce).
Since the accumulation of hypophosphorylated Dab1 in Cdk5^−/− neurons implies that Reelin signaling is defective, we sought to determine whether the defect in Reelin signaling is intrinsic to Cdk5-deficient neurons or whether it arises as an indirect consequence of the ectopic location of these neurons. […]

Reelin: Large secreted glycoprotein; purified recombinant Reelin used to stimulate embryonic neurons
Tyrosine phosphorylation of Dab1 (neurons from E16.5 Cdk5-/- embryos, Reelin-enriched DMEM vs DMEM alone, 4G10 anti-phosphotyrosine blot): sharp increase in tyrosine phosphorylation of Dab1
Tyrosine phosphorylation of Dab1 (neurons from E16.5 reeler brains, exogenous Reelin 15 minutes at 37° C.): sharp increase in tyrosine phosphorylation of Dab1
Serine 491 phosphorylation of Dab1 (neurons from E16.5 reeler brains, exogenous Reelin 15 minutes at 37° C., anti-PSer491 blot): did not cause any noticeable change
